The values that follow come from BindingDB's records for doi:10.7270/Q2F769ZM (The Scripps Research Institute Molecular Screening Center, 2007).

The pIC50 is the negative decadic logarithm of the IC50, by convention in mol/L. Read a low pIC50 as a large IC50.

pIC50: −log10 of the molar value. Structures can show the parent of a compound that is named as a salt.

In one test the target is Rho-associated protein kinase 2 (Homo sapiens, UniProt O75116). The experiment in a line: human Rho kinase 2 inhibition – biochemical, Kinase-Glo luminescence, S6 peptide, 1536-well, dose response (AID 644).
Chain of Rho-associated protein kinase 2 (O75116 whole entry): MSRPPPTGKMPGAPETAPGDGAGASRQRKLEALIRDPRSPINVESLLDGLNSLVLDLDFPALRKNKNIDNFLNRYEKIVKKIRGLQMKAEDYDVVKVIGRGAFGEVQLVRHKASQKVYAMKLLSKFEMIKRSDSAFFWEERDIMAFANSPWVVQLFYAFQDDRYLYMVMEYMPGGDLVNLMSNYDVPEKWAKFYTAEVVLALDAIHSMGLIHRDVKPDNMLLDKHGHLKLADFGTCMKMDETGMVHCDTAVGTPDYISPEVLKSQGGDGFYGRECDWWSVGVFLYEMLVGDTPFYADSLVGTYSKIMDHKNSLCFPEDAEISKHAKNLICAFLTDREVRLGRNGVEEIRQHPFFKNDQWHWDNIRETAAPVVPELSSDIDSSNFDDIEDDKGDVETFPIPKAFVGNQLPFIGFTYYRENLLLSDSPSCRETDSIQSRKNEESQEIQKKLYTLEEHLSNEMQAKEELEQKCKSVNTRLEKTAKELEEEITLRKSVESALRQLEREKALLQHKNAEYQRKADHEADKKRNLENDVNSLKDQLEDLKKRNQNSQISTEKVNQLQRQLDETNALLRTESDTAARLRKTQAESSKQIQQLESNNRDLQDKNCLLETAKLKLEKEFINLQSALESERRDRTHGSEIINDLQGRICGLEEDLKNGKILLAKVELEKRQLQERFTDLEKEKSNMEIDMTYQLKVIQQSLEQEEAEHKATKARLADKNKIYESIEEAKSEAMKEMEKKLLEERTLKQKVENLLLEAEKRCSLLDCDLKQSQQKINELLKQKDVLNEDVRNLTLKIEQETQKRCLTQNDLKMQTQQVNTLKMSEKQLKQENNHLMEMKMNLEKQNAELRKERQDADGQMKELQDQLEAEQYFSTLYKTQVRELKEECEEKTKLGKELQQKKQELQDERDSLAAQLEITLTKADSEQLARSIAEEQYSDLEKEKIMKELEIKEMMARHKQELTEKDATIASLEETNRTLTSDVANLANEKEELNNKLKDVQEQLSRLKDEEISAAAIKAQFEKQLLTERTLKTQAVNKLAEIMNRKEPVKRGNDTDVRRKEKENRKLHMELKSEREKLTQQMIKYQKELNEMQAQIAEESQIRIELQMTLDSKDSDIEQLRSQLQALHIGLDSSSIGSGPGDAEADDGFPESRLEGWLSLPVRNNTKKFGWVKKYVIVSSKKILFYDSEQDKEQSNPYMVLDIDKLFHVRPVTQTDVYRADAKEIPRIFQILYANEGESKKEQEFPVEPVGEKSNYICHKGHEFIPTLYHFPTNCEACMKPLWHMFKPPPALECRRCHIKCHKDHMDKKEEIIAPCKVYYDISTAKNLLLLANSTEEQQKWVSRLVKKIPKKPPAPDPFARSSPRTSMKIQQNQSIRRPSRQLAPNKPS
Conditions: not given
Regarding `O=C(Nc1nc(-c2ccncc2)cs1)C1COc2ccccc2O1` (stereo unspecified), the pIC50 was > 8.52.
`C1=C(c2c[nH]c3ccccc23)CCNC1`: the pIC50 was 5.60.
Consider `Nc1nonc1-c1nc2ccccc2[nH]1`, for which the pIC50 is 4.64.
Regarding `COc1ccc2[nH]c(=O)c3c(c2c1)OC(C)(C)C=C3`, the pIC50 was < 4.70.
`O=C(CSc1nnc(-c2ccncc2)[nH]1)c1ccccc1` gave a negative-log IC50 (pIC50) of 6.12.
Turning to `Cc1[nH]nc2c1C(c1ccc(-c3ccccc3C#N)o1)C(C#N)C(=N)O2` (stereo unspecified), the pIC50 was < 4.70.
`COc1cc(N=CC2C(=O)Nc3ccccc32)cc(OC)c1OC` (stereo unspecified) had a pIC50 of 4.98.
Regarding `O=C(Nn1c(=S)[nH]c2ccccc2c1=O)c1ccncc1`, the pIC50 is < 4.70.
With `c1ccc2c(-c3ccncc3)c[nH]c2c1`, the pIC50 is 6.10.
Consider `C[C@H]1CNCCN1S(=O)(=O)c1cccc2cnccc12`, for which the pIC50 is 7.00.
In the case of `Nc1ccc2cn[nH]c2c1`, the negative logarithm of the IC50 (pIC50) is < 4.70.
The same measure, in the same setting: then `CCN1C(=O)N(CC)C(O)(c2ccccc2)C1(O)c1ccccc1` (stereo unspecified) [1,3-diethyl-4,5-bis(oxidanyl)-4,5-diphenyl-imidazolidin-2-one], with < 4.22.
As to `Cc1cccc2cc(=O)[nH]c(C)c12` [1,8-dimethyl-2H-isoquinolin-3-one], the pIC50 was < 4.22.
For `Nc1nc2ccccc2n1C(=O)CCc1ccccc1` [1-(2-Amino-benzoimidazol-1-yl)-3-phenyl-propan-1-one], the pIC50 was < 4.22.
Take `CC(=O)c1cccc(NC(=O)NCc2cccs2)c1` [1-(3-acetylphenyl)-3-(2-thenyl)urea]: the pIC50 is < 4.22.
In turn, `CC(=O)n1cc(-c2ccncc2)c2ccccc21` [1-(3-pyridin-4-yl-1-indolyl)ethanone;hydrochloride] had a pIC50 of 5.09.
As to `CC(C)(C)C(=O)c1sc(Nc2ccccc2)nc1N` [1-(4-amino-2-anilino-1,3-thiazol-5-yl)-2,2-dimethyl-1-propanone], the pIC50 is < 4.22.
As for `CN1c2cccc3cccc(c23)C1N=O` (stereo unspecified) [1-Methyl-1H-benzo[cd]indol-2-one oxime], the pIC50 was < 4.70.
Turning to `CC(=O)c1ccc(OCC(O)COc2ccc(C(C)=O)cc2)cc1` [1-[4-[3-(4-acetylphenoxy)-2-hydroxy-propoxy]phenyl]ethanone], the pIC50 was < 4.22.
Consider `COc1cc(C=Nn2nnnc2N)ccc1OCc1ccc(F)cc1` [1-[[4-[(4-fluorophenyl)methoxy]-3-methoxy-phenyl]methylideneamino]-1,2,3,4-tetrazol-5-amine], for which the pIC50 is 4.76.
Consider `CCn1cc(C(=O)Nn2cnnc2)c(=O)c2ccc(C)nc21` [1-ethyl-4-keto-7-methyl-N-(1,2,4-triazol-4-yl)-1,8-naphthyridine-3-carboxamide], for which the pIC50 is < 4.22.
In the case of `N#Cc1c(N=Cc2ccco2)sc2c1CCCCC2` [2-(2-furanylmethylideneamino)-5,6,7,8-tetrahydro-4H-cyclohepta[b]thiophene-3-carbonitrile], the pIC50 is < 4.70.
`N#Cc1c(N=Cc2cccs2)sc2c1CCCCC2` [2-(2-thenylideneamino)-5,6,7,8-tetrahydro-4H-cyclohepta[b]thiophene-3-carbonitrile]: the pIC50 was < 4.22.
Same read-out and setting: then `Cn1c(CSCc2ccc(Cl)c(Cl)c2)nnc1SCC(=O)Nc1nccs1` [2-[(5-{[(3,4-dichlorobenzyl)thio]methyl}-4-methyl-4H-1,2,4-triazol-3-yl)thio]-N-1,3-thiazol-2-ylacetamide], with < 4.70; and `N#CC1C(=N)Oc2cc(O)ccc2C1c1ccncc1` (stereo unspecified) [2-amino-7-hydroxy-4-(4-pyridyl)-4H-chromene-3-carbonitrile], with 3.90.
`CCCCc1c(C)nc(N)[nH]c1=O` [2-azanyl-5-butyl-6-methyl-1H-pyrimidin-4-one]: the pIC50 was < 4.22.
Take `c1coc(CNc2ncnc3sc4c(c23)CCCCC4)c1` [2-furfuryl(6,7,8,9-tetrahydro-5H-cyclohepta[4,5]thieno[1,2-c]pyrimidin-4-yl)amine]: the negative logarithm of the IC50 (pIC50) is < 4.22.
As to `O=c1ccc(=O)n2n1CC(O)C2` [2-hydroxy-2,3-dihydro-1H-pyrazolo[1,2-a]pyridazine-5,8-dione], the pIC50 was < 4.22.
With `O=C(O)c1cc(NCc2ccc3c(c2)OCO3)ccc1N1CCOCC1` [2-morpholino-5-(piperonylamino)benzoic acid], the negative-log IC50 (pIC50) is < 4.22.
For the compound `Fc1ccccc1Cn1nnc2c(-n3ccnc3)ncnc21` [3-(2-Fluoro-benzyl)-7-imidazol-1-yl-3H-[1,2,3]triazolo[4,5-d]pyrimidine], the pIC50 was < 4.70.
As to `COc1ccc(CCC(=O)Nc2nc3c(s2)CN(C)CC3)cc1OC` [3-(3,4-dimethoxyphenyl)-N-(5-methyl-6,7-dihydro-4H-[1,3]thiazolo[5,4-c]pyridin-2-yl)propanamide], the pIC50 was < 4.22.
As for `COc1ccc2cc3c(N)c(C(=O)NCc4ccco4)sc3nc2c1` [3-Amino-7-methoxy-thieno[2,3-b]quinoline-2-carboxylic acid (furan-2-ylmethyl)-amide], the pIC50 was < 4.70.
Take `COc1ccc2c(Cl)c(C(N)=O)sc2c1` [3-Chloro-6-methoxy-benzo[b]thiophene-2-carboxylic acid amide]: the pIC50 is 5.17.
For the compound `CN(C(=O)c1cccc(-n2c(O)c3c(c2O)CC=CC3)c1)C1CCCCC1` [3-[1,3-bis(oxidanylidene)-3a,4,7,7a-tetrahydroisoindol-2-yl]-N-cyclohexyl-N-methyl-benzamide], the pIC50 is < 4.22.
On the same count and under the same terms, then `Cc1cc(C(=O)CN2C(=O)NC3(CCCCC3)C2=O)c(C)n1Cc1ccc2c(c1)OCO2` [3-[2-(2,5-dimethyl-1-piperonyl-pyrrol-3-yl)-2-keto-ethyl]-1,3-diazaspiro[4.5]decane-2,4-quinone], with < 4.22; and `COC(=O)c1sc2cnccc2c1N` [3-amino-2-thieno[2,3-c]pyridinecarboxylic acid methyl ester], with 5.08; and `NC(=O)c1sc2nc3c(c(-c4ccco4)c2c1N)CCC3` [3-amino-4-(2-furyl)-6,7-dihydro-5H-cyclopenta[b]thieno[3,2-e]pyridine-2-carboxamide], with < 4.22.
Still for that read-out and setting: then `c1cc2c(cc1Nc1nc(-c3ccc4c(c3)OCO4)cs1)OCCO2` [4-(1,3-benzodioxol-5-yl)-N-(2,3-dihydro-1,4-benzodioxin-6-yl)-1,3-thiazol-2-amine], with < 4.22; and `c1nc(N2CCOCC2)c2nc[nH]c2n1` [4-(7H-purin-6-yl)morpholine], with 5.15; and `Cc1cccc(N2CCN(C(=O)c3cn(C)c(=O)c4c3c3ccccc3n4C)CC2)c1C` [4-[4-(2,3-dimethylphenyl)piperazin-1-yl]carbonyl-2,9-dimethyl-pyrido[3,4-b]indol-1-one], with < 4.22.
Still for that read-out and setting: then `CC(C)CCN1CC(C(=O)N2CCN(c3ccc(F)cc3)CC2)CC1=O` (stereo unspecified) [4-[4-(4-fluorophenyl)piperazin-1-yl]carbonyl-1-(3-methylbutyl)pyrrolidin-2-one], with < 4.22.

Staying with this test, now noted: inactive by the depositor's call.
Compound `COC1(OC)N=C(N)C2(C#N)C(c3ccc4c(c3)OCO4)C12C#N` (stereo unspecified) had a pIC50 of 4.32.
As for `c1coc(CNc2ncnc3[nH]cnc23)c1`, the pIC50 is 4.67.
With `Brc1ccc2[nH]ncc2c1`, the pIC50 was 4.79.
Same read-out and setting: then `Nc1ccc2[nH]ncc2c1`, with 4.89.
On the same count and under the same terms, then `Cc1c(C)n(C)c2ccc(C(=O)NCc3cccs3)cc12` [1,2,3-trimethyl-N-(2-thenyl)indole-5-carboxamide], with 4.92; and `CCN1CCN(Cc2nnnn2C(C)(C)C)CC1` [1-(1-tert-Butyl-1H-tetrazol-5-ylmethyl)-4-ethyl-piperazine], with 4.76; and `O=C(Nc1ccncc1)Nc1ccc(F)cc1F` [1-(2,4-difluorophenyl)-3-(4-pyridyl)urea], with 4.72.
The same measure, in the same setting: then `CN1C(=O)CSc2ccc(NC(=O)NCc3cccnc3)cc21` [1-(3-keto-4-methyl-1,4-benzothiazin-6-yl)-3-(3-pyridylmethyl)urea], with 4.99.
`Nc1ncnc2c1cnn2-c1ccccc1` [1-Phenyl-1H-pyrazolo[3,4-d]pyrimidin-4-ylamine] had a pIC50 of 4.69.
The compound `NC(=O)c1sc2nc(N3CCCCC3)c3c(c2c1N)CCCC3` [1-amino-5-(1-piperidinyl)-6,7,8,9-tetrahydrothieno[2,3-c]isoquinoline-2-carboxamide] gave a pIC50 of 3.85.
In turn, `N#Cc1cc2c(nc1SCc1ccncc1)CCC2` [2-(4-pyridylmethylthio)-1-pyrindan-3-carbonitrile] had a pIC50 of 4.69.
As for `O=C(CSc1nc(-c2ccc(F)cc2)c[nH]1)Nc1cccc(O)c1` [2-[5-(4-Fluoro-phenyl)-1H-imidazol-2-ylsulfanyl]-N-(3-hydroxy-phenyl)-acetamide], the pIC50 was 4.63.
Still for that read-out and setting: then `NC(=O)c1c(-c2cccs2)csc1N` [2-amino-4-(2-thienyl)thiophene-3-carboxamide], with 4.71; and `Cc1c(C(=O)N2CCCCC2)sc(N)c1C#N` [2-amino-4-methyl-5-(piperidine-1-carbonyl)thiophene-3-carbonitrile], with 4.06.
`Clc1ccccc1-c1nnc2sc(-c3ccncc3)nn12` [3-(2-chlorophenyl)-6-(4-pyridyl)-[1,2,4]triazolo[3,4-b][1,3,4]thiadiazole] showed a pIC50 of 4.10.
`Cc1c(C(=O)Nc2ccc3oc(-c4cccnc4)nc3c2)oc2ccccc12` [3-Methyl-benzofuran-2-carboxylic acid (2-pyridin-3-yl-benzooxazol-5-yl)-amide] had a pIC50 of 3.00.
For the compound `Cc1ccc(S(=O)(=O)NCCCOC(=O)Nc2ccncc2)cc1` [3-[(4-methylphenyl)sulfonylamino]propyl N-pyridin-4-ylcarbamate], the pIC50 is 4.69.
The compound `Cc1ccc(SCc2nc(-c3ccncc3)no2)cc1` [4-(5-{[(4-methylphenyl)thio]methyl}-1,2,4-oxadiazol-3-yl)pyridine] had a pIC50 of 4.37.
Compound `O=C(CCCOc1ccccc1)Nc1ccncc1` [4-Phenoxy-N-pyridin-4-yl-butyramide] had a pIC50 of 4.85.
Compound `Cc1ccc2c(c1)c1c3n2CCN(C(=O)Cn2c(-c4ccccc4)noc2=O)C3CCC1` (stereo unspecified) [4-[2-(8-Methyl-1,2,3a,4,5,6-hexahydro-pyrazino[3,2,1-jk]carbazol-3-yl)-2-oxo-ethyl]-3-phenyl-4H-[1,2,4]oxadiazol-5-one] showed a pIC50 of 4.73.
